Experimental data: ChEMBL document CHEMBL3734713, “4-Thiazolidinone derivatives as potent antimicrobial agents: microwave-assisted synthesis, biological evaluation and docking studies” (2015)
≈ marks a conversion by molar mass, not a printed value.

How the values were obtained:
Salmonella typhimurium = assay: Antibacterial activity against Salmonella typhimurium ATCC 13311 assessed as growth inhibition after 24 hrs at 37 degC by iodonitrotetrazolium chloride staining based microdilution broth assay; type: functional, Salmonella enterica subsp. enterica serovar Typhimurium; details: Salmonella enterica, ATCC 13311, 24 h
Listeria monocytogenes = assay: Antibacterial activity against Listeria monocytogenes NCTC 7973 assessed as growth inhibition after 24 hrs at 37 degC by iodonitrotetrazolium chloride staining based microdilution broth assay; type: functional; details: NCTC 7973, 24 h
Aspergillus versicolor = assay: Antifungal activity against Aspergillus versicolor ATCC 11730 assessed as growth inhibition after 72 hrs at 28 degC by serial dilution method; type: functional; details: for MIC: Aspergillus versicolor, ATCC 11730, 72 h
Talaromyces funiculosus = assay: Antifungal activity against Penicillium funiculosum ATCC 36839 assessed as growth inhibition after 72 hrs at 28 degC by serial dilution method; type: functional; details: for MIC: Talaromyces funiculosus, ATCC 36839, 72 h
Aspergillus fumigatus = assay: Antifungal activity against Aspergillus fumigatus ATCC 1022 assessed as growth inhibition after 72 hrs at 28 degC by serial dilution method; type: functional; details: for MIC: Aspergillus fumigatus, ATCC 1022, 72 h
Pseudomonas aeruginosa = assay: Antibacterial activity against Pseudomonas aeruginosa ATCC 27853 assessed as growth inhibition after 24 hrs at 37 degC by iodonitrotetrazolium chloride staining based microdilution broth assay; type: functional; details: ATCC 27853, 24 h
Candida albicans = assay: Antifungal activity against Candida albicans ATCC 10231 assessed as growth inhibition after 72 hrs at 28 degC by serial dilution method; type: functional; details: for MIC: Candida albicans, ATCC 10231, 72 h
Aspergillus niger = assay: Antifungal activity against Aspergillus niger ATCC 6275 assessed as growth inhibition after 72 hrs at 28 degC by serial dilution method; type: functional; details: for MIC: Aspergillus niger, ATCC 6275, 72 h
Trichoderma viride = assay: Antifungal activity against Trichoderma viride IAM 5061 assessed as growth inhibition after 72 hrs at 28 degC by serial dilution method; type: functional; details: for MIC: Trichoderma viride, IAM 5061, 72 h
Escherichia coli = assay: Antibacterial activity against Escherichia coli ATCC 35210 assessed as growth inhibition after 24 hrs at 37 degC by iodonitrotetrazolium chloride staining based microdilution broth assay; type: functional; details: ATCC 35210, 24 h
Bacillus cereus = assay: Antibacterial activity against clinical isolates of Bacillus cereus assessed as growth inhibition after 24 hrs at 37 degC by iodonitrotetrazolium chloride staining based microdilution broth assay; type: functional
Staphylococcus aureus = assay: Antibacterial activity against Staphylococcus aureus ATCC 6538 assessed as growth inhibition after 24 hrs at 37 degC by iodonitrotetrazolium chloride staining based microdilution broth assay; type: functional; details: ATCC 6538, 24 h
Enterobacter cloacae = assay: Antibacterial activity against human isolate of Enterobacter cloacae assessed as growth inhibition after 24 hrs at 37 degC by iodonitrotetrazolium chloride staining based microdilution broth assay; type: functional
Penicillium ochrochloron = assay: Antifungal activity against Penicillium ochrochloron ATCC 9112 assessed as growth inhibition after 72 hrs at 28 degC by serial dilution method; type: functional; details: for MIC: Penicillium ochrochloron, ATCC 9112, 72 h
Micrococcus flavus = assay: Antibacterial activity against Micrococcus flavus ATCC 10240 assessed as growth inhibition after 24 hrs at 37 degC by iodonitrotetrazolium chloride staining based microdilution broth assay; type: functional; details: ATCC 10240, 24 h
[1] = target: Human immunodeficiency virus type 1 reverse transcriptase (Human immunodeficiency virus 1) (UniProt Q72547); assay: Inhibition of HIV1 reverse transcriptase assessed as residual enzyme activity by measuring reduction in [3H]dTTP incorporation into poly(rA)-oligo(dT) at 4 uM incubated for 15 mins by scintillation counting method relative to control
Aspergillus ochraceus = assay: Antifungal activity against Aspergillus ochraceus ATCC 12066 assessed as growth inhibition after 72 hrs at 28 degC by serial dilution method; type: functional; details: for MIC: Aspergillus ochraceus, ATCC 12066, 72 h

Row | MIC (Salmonella typhimurium) [µM] | MIC (Listeria monocytogenes) [µM] | MIC (Aspergillus versicolor) [µM] | MIC (Talaromyces funiculosus) [µM] | MIC (Aspergillus fumigatus) [µM] | MIC (Pseudomonas aeruginosa) [µM] | MIC (Candida albicans) [µM] | MIC (Aspergillus niger) [µM] | MIC (Trichoderma viride) [µM] | MIC (Escherichia coli) [µM] | SMILES | MBC (Salmonella typhimurium) [µM] | MBC (Listeria monocytogenes) [µM] | MFC99.5 (Aspergillus versicolor) [×10⁻² umol/ml] | MFC99.5 (Talaromyces funiculosus) [×10⁻² umol/ml] | MFC99.5 (Aspergillus fumigatus) [×10⁻² umol/ml] | MBC (Pseudomonas aeruginosa) [µM] | MFC99.5 (Candida albicans) [×10⁻² umol/ml] | MFC99.5 (Aspergillus niger) [×10⁻² umol/ml] | MFC99.5 (Trichoderma viride) [×10⁻² umol/ml] | MBC (Escherichia coli) [µM] | also measured
1 | 16.2 (≈ 7 µg/mL) | 62.5 (≈ 26.9 µg/mL) | 0.5 (≈ 0.216 µg/mL) | 0.45 (≈ 0.194 µg/mL) | 0.45 (≈ 0.194 µg/mL) | 16.2 (≈ 7 µg/mL) | 5.8 (≈ 2.5 µg/mL) | 0.45 (≈ 0.194 µg/mL) | 0.3 (≈ 0.129 µg/mL) | 62.5 (≈ 26.9 µg/mL) | O=C1CSC(c2ccc(Cl)cc2)N1c1nc(C23CC4CC(CC(C4)C2)C3)cs1 (stereo unspecified) | 62.5 (≈ 26.9 µg/mL) | 125 (≈ 53.9 µg/mL) | 0.07 | 0.07 | 0.07 | 125 (≈ 53.9 µg/mL) | 1.16 | 0.07 | 0.05 | 125 (≈ 53.9 µg/mL) | MBC (Bacillus cereus): 62.5 µM (≈ 26.9 µg/mL); MIC (Bacillus cereus): 16.2 µM (≈ 7 µg/mL); MBC (Staphylococcus aureus): 62.5 µM (≈ 26.9 µg/mL); MIC (Staphylococcus aureus): 16.2 µM (≈ 7 µg/mL); MBC (Enterobacter cloacae): 125 µM (≈ 53.9 µg/mL); MIC (Enterobacter cloacae): 62.5 µM (≈ 26.9 µg/mL); MFC99.5 (Penicillium ochrochloron): 0.07 ×10⁻² umol/ml; MIC (Penicillium ochrochloron): 0.3 µM (≈ 0.129 µg/mL); MBC (Micrococcus flavus): 62.5 µM (≈ 26.9 µg/mL); MIC (Micrococcus flavus): 30.6 µM (≈ 13.2 µg/mL); Activity [1]: 99%; MFC99.5 (Aspergillus ochraceus): 0.07 ×10⁻² umol/ml; MIC (Aspergillus ochraceus): 0.5 µM (≈ 0.216 µg/mL)
2 | 30.6 (≈ 13.5 µg/mL) | 61.2 (≈ 27 µg/mL) | 5.6 (≈ 2.47 µg/mL) | 0.7 (≈ 0.309 µg/mL) | 11.3 (≈ 4.99 µg/mL) | 30.6 (≈ 13.5 µg/mL) | 11.3 (≈ 4.99 µg/mL) | 3.5 (≈ 1.55 µg/mL) | 1.4 (≈ 0.618 µg/mL) | 85 (≈ 37.5 µg/mL) | O=C1CSC(c2ccc([N+](=O)[O-])cc2)N1c1nc(C23CC4CC(CC(C4)C2)C3)cs1 (stereo unspecified) | 125 (≈ 55.2 µg/mL) | 125 (≈ 55.2 µg/mL) | 1.13 | 0.14 | 4.52 | 125 (≈ 55.2 µg/mL) | 2.26 | 0.56 | 0.28 | 125 (≈ 55.2 µg/mL) | MBC (Bacillus cereus): 30.6 µM (≈ 13.5 µg/mL); MIC (Bacillus cereus): 16.2 µM (≈ 7.18 µg/mL); MBC (Staphylococcus aureus): 61.2 µM (≈ 27 µg/mL); MIC (Staphylococcus aureus): 30.6 µM (≈ 13.5 µg/mL); MBC (Enterobacter cloacae): 62.5 µM (≈ 27.6 µg/mL); MIC (Enterobacter cloacae): 30.6 µM (≈ 13.5 µg/mL); MFC99.5 (Penicillium ochrochloron): 0.28 ×10⁻² umol/ml; MIC (Penicillium ochrochloron): 1.4 µM (≈ 0.618 µg/mL); MBC (Micrococcus flavus): 125 µM (≈ 55.2 µg/mL); MIC (Micrococcus flavus): 61.2 µM (≈ 27 µg/mL); Activity [1]: 99.3%; MFC99.5 (Aspergillus ochraceus): 0.28 ×10⁻² umol/ml; MIC (Aspergillus ochraceus): 1.4 µM (≈ 0.618 µg/mL)
